pKd: −log10 of the molar value. Each block holds one compound with its values, some of them ahead of it. Starred links: 1 amine or outer side, 2 acyl side, 3 side chain; linkers in the order of their positions; H or OH if unused. Positions of bridges follow the written chain, without caps; N, C: chain ends. Residues, ends and D or L forms follow the SMILES beside them. No end group written: not given here. *: point of attachment. TBMB = c1c(C[*:1])cc(C[*:3])cc1C[*:2]; Cam = NC(=O)C*
Columns and labels:
MDM2 (res 2-125) = MDM2 (res 2-125) (Homo sapiens, UniProt Q00987); test: Fluorescence anisotropy titration, affinity for MDM2; type: binding
Method: Titration experiments were run on a Horiba Jobin Yvon fluorimeter equipped with the Hamilton Microlab titrator controlled by laboratory software. […] The slit widths for excitation and emission were 5 nm and 15 nm and the integration time 10 s was used for each measurement. The intrinsic fluorescence of tryptophan in peptides 10, 48 was used to measure their binding affinity for MDM2 (res 2-125). The experiments were performed at 23° C. in PBS, 5 mM DTT. Usually 250 μl of MDM2 (150 μM) was titrated into 1.2 ml of peptide (1 μM). Titration data were analyzed with a standard 1:1 binding model by using the quadratic solution to the equilibrium Kd=[A][B]/[AB]. […] The fitting equation contained an extra term to account for linear drift.

[1] = biological target: T1, biotinylated MDM2 peptide (res 2-125) (Homo sapiens, UniProt Q00987); test: Phage ELISA, binding to MDM2; conditions: 5 mM DTT 20 min, then chymotrypsin 50 μg/ml 2 min
T1 construct: biotinylated MDM2 peptide (res 2-125)
Method: 0.6 μg/mL of biotinylated MDM2 peptide (res 2-125) was immobilized on a streptavidin-coated plate (Roche). Plate was blocked with PBSM (but 4% in milk powder) and linear or TBMB-conjugated phage (10^7 TU/well in PBSM in the presence or absence of 5 mM DTT) was incubated on the plate for 50 min at room temperature. Similarly, phage was first reduced in 5 mM DTT for 20 min, treated with chymotrypsin (50 μg/ml in PBS) for 2 min, mixed with PBSM (final concentration) and incubated on the plate for 50 min at room temperature. Phage was detected using an anti-M13-HRP monoclonal antibody (1:5000, Amersham).

Pronase = test: Peptide conjugate digestion with Pronase; type: in vitro ADME; also: key: +++: substantially intact; −: completely cleaved
Method: (§1) For methods, see Example 3 following. The proteolysis was undertaken at 37° C. Cathepsin G and kalikrein reactions were carried out in 10 mM Tris pH 7.4, 150 mM NaCl, 10 mM MgCl2, 1 mM CaCl2, 0.1% BSA, 0.01% Triton X100, 5% DMSO. Chymotrypsin reactions were carried out in 100 mM Tris pH 7.4, 10 mM CaCl2. Pronase and proteinase K reactions were carried out in 100 mM Tris pH 7.4, 0.5% SDS. Subtilisin reactions were carried out in 50 mM KH2PO4 pH 7.5. Trypsin reactions were carried out in 67 mM sodium phosphate pH 7.6. Reaction conditions with serum involve dissolving the peptide in 1×PBS (total volume 24 μl) and 6 μl of human serum added to the reaction.
(§2) Peptides (linear and conjugates) were dissolved in water at a concentration of 1 mg/ml, giving an effective concentration of ˜0.5 mM stock solutions and the concentration determined using amino acid analysis. 2 μl of peptide conjugates ([…]) (˜30 μM in reactions depending on actual molecular weight) were dissolved in reaction buffer (see below) in a total reaction volume of 30 μl, followed by the protease (typically in the range 1, 0.1 and 0.01 μg per reaction), and samples were incubated at 37° C. for 1 hr. 10 μl aliquots were quenched into 10 μl of 1% TFA. Samples were analysed by MALDI-TOF mass spectrometry to identify the fragment peaks and thus determine the site of cleavage. Where there was ambiguity as to the cleavage site samples were analysed by either by MALDI-TOF-TOF (Bruker Ultraflex 3) or by Linear Ion Trap (Thermoscientific Orbitrap XL) to determine accurate masses.

[2] = Resistance to proteases in serum; type: in vitro ADME, human; conditions: 37° C.
Method: as §1

Cathepsin G = biological target: T2, Cathepsin G (Homo sapiens, UniProt P08311); test: Peptide conjugate digestion with Cathepsin G; type: in vitro ADME; also: key: +++: substantially intact; −: completely cleaved
T2 sequence (P08311 21-244): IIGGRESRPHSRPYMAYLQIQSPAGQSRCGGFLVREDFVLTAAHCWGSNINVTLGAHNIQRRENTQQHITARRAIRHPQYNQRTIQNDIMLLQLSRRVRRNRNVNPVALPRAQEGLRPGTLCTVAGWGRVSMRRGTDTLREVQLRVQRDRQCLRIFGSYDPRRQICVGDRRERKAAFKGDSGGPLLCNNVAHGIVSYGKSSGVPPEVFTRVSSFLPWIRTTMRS
Method: as §1, §2

Trypsin = test: Peptide conjugate digestion with Trypsin; type: in vitro ADME; as to Peptide digestion, intactness scale: key: +++: substantially intact; −: completely cleaved
Method: as §1, §2

Chymotrypsin = test: Peptide conjugate digestion with Chymotrypsin; type: in vitro ADME; as to Peptide digestion, intactness scale: key: +++: substantially intact; −: completely cleaved
Method: as §1, §2

Subtilisin = test: Peptide conjugate digestion with Subtilisin; type: in vitro ADME; also: key: +++: substantially intact; −: completely cleaved
Method: as §1
(§3) Peptides (linear and conjugates) were dissolved in water at a concentration of 1 mg/ml, giving an effective concentration of ˜0.5 mM stock solutions and the concentration determined using amino acid analysis. […] Samples were analysed by MALDI-TOF mass spectrometry to identify the fragment peaks and thus determine the site of cleavage. Where there was ambiguity as to the cleavage site samples were analysed by either by MALDI-TOF-TOF (Bruker Ultraflex 3) or by Linear Ion Trap (Thermoscientific Orbitrap XL) to determine accurate masses.

Kalikrein = Kalikrein (Homo sapiens, UniProt P03952); test: Peptide conjugate digestion with Kalikrein; type: in vitro ADME; design: Peptide digestion, intactness scale: key: +++: substantially intact; −: completely cleaved
Method: as §1, §2

[3] = Peptide conjugate digestion with Chymotrypsin; type: in vitro ADME; conditions: isolated enzyme chymotrypsin, pH 7.4; chymotrypsin 0.1 μg, after 1 hr; read-out: fraction cleaved by chymotrypsin; as to Peptide digestion, intactness scale: key: +++: substantially intact; −: completely cleaved
Method: as §1, §2

Proteinase K = Proteinase K (Parengyodontium album, UniProt P06873); test: Peptide conjugate digestion with Proteinase K; type: in vitro ADME; design: key: +++: substantially intact; −: completely cleaved
Method: as §1, §2

various proteases = type: in vitro ADME
Method: as §1, §3

[4] = Kd, peptide+MDM2, λex=295 nm, 23° C., PBS, 5 mM DTT
[5] = affinity for MDM2, synthetic peptide, sub-micromolar, stated range
[6] = mass spectrometric analysis of cleaved species

Chain of Proteinase K (P06873 106-384): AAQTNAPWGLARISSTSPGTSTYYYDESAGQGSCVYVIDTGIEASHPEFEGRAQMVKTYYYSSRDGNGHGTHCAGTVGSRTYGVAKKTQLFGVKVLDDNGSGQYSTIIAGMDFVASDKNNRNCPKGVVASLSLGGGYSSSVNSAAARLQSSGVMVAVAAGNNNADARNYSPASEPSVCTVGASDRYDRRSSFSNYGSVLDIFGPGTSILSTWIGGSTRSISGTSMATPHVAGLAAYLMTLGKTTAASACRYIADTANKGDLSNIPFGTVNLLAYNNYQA
Chain of Kalikrein (P03952 20-638): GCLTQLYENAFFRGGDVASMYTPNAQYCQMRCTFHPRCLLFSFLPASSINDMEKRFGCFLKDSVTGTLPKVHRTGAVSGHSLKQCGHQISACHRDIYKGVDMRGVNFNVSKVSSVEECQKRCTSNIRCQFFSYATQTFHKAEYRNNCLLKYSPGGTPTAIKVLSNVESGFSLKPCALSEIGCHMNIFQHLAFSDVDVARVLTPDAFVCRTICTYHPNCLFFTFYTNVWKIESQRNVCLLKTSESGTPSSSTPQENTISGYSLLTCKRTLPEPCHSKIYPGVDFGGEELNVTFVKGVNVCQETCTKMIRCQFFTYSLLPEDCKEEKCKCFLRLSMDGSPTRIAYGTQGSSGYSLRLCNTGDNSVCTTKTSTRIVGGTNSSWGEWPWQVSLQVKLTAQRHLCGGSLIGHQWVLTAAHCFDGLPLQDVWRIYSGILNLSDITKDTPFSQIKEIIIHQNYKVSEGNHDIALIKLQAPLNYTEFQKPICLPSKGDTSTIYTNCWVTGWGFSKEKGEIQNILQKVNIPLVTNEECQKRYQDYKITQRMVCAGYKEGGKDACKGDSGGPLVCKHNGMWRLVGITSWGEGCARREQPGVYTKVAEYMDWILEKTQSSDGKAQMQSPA
Chain of MDM2 (res 2-125) (Q00987 2-125, species assumed): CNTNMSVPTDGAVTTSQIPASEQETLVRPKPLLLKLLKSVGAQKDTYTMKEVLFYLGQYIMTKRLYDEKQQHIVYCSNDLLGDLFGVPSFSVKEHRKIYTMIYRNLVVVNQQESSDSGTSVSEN
T1 sequence (Q00987 2-125, species assumed): as above

Compound: CC(C)[C@@H]1NC(=O)[C@@H](NC(=O)[C@@H](N)CO)CSCc2cc3cc(c2)CSC[C@H](NC(=O)[C@H]([C@@H](C)O)NC(=O)[C@H](Cc2c[nH]c4ccccc24)NC(=O)CNC(=O)[C@H](Cc2ccccc2)NC(=O)[C@H](CCCNC(=N)N)NC1=O)C(=O)N[C@@H](CC(=O)O)C(=O)N[C@@H](CC(N)=O)C(=O)N[C@@H](CO)C(=O)N[C@@H](Cc1c[nH]c2ccccc12)C(=O)N[C@@H](Cc1c[nH]cn1)C(=O)NCC(=O)N[C@H](C(=O)N[C@@H](CCCCN)C(=O)NCC(=O)O)CSC3 [PEP48] (HELM PEPTIDE1{S.C.V.R.F.G.W.T.C.D.N.S.W.H.G.C.K.G}|CHEM1{[c1c(C[*:1])cc(C[*:3])cc1C[*:2]]}$PEPTIDE1,CHEM1,2:R3-1:R1|PEPTIDE1,CHEM1,9:R3-1:R2|PEPTIDE1,CHEM1,16:R3-1:R3$$$V2.0)
pKd (MDM2 (res 2-125); Kd, peptide+MDM2, λex=280 nm): 6.12
pKd (MDM2 (res 2-125); [4]): 6.25
pKd (MDM2 (res 2-125); [5]): 6.12 to 6.60
binding to MDM2 after proteolysis [1]: resistant to proteolysis

Peptide digestion, intactness scale (Pronase; Pronase 0.01, 37° C.): +++
Peptide digestion, intactness scale (Pronase; Pronase 10, 37° C.): −
time within which digested by the proteases in serum [2]: ≤ 2 h
Peptide digestion, intactness scale (Cathepsin G; Cathepsin G 0.1, 37° C.): −
Peptide digestion, intactness scale (Cathepsin G; Cathepsin G 1 (μg per reaction), 37° C.): −
Peptide digestion, intactness scale (Trypsin; Trypsin 1, 37° C.): −
Peptide digestion, intactness scale (Trypsin; Trypsin 10, 37° C.): −
Peptide digestion, intactness scale (Chymotrypsin; Chymotrypsin 0.01, 37° C.): +++
Peptide digestion, intactness scale (Chymotrypsin; Chymotrypsin 1, 37° C.): −
Peptide digestion, intactness scale (Chymotrypsin; Chymotrypsin 10, 37° C.): −
Compound: CC(C)C[C@H](NC(=O)[C@H](C)NC(=O)[C@H](CCC(=O)O)NC(=O)[C@H](CC(=O)O)NC(=O)[C@H](C)NC(=O)[C@@H]1CCCN1C(=O)[C@H](CSCC(N)=O)NC(=O)[C@H](CC(N)=O)NC(=O)[C@H](CCCNC(=N)N)NC(=O)[C@H](Cc1ccccc1)NC(=O)[C@H](CCCNC(=N)N)NC(=O)[C@H](CC(=O)O)NC(=O)[C@H](CO)NC(=O)[C@H](CSCC(N)=O)NC(=O)[C@H](C)N)C(=O)N[C@@H](CSCC(N)=O)C(=O)NCC(=O)O [PK15 linear, AC*SDRFRNC*PADEALC*G] (H-AC(Cam)SDRFRNC(Cam)PADEALC(Cam)G-OH)

Compound: CC(C)C[C@@H]1NC(=O)[C@H](C)NC(=O)[C@H](CCC(=O)O)NC(=O)[C@H](CC(=O)O)NC(=O)[C@H](C)NC(=O)[C@@H]2CCCN2C(=O)[C@@H]2CSCc3cc(cc(c3)CSC[C@@H](C(=O)NCC(=O)O)NC1=O)CSC[C@H](NC(=O)[C@H](C)N)C(=O)N[C@@H](CO)C(=O)N[C@@H](CC(=O)O)C(=O)N[C@@H](CCCNC(=N)N)C(=O)N[C@@H](Cc1ccccc1)C(=O)N[C@@H](CCCNC(=N)N)C(=O)N[C@@H](CC(N)=O)C(=O)N2 [PK15-TBMB] (HELM PEPTIDE1{A.C.S.D.R.F.R.N.C.P.A.D.E.A.L.C.G}|CHEM1{[c1c(C[*:1])cc(C[*:3])cc1C[*:2]]}$PEPTIDE1,CHEM1,2:R3-1:R1|PEPTIDE1,CHEM1,9:R3-1:R2|PEPTIDE1,CHEM1,16:R3-1:R3$$$V2.0)
Peptide digestion, intactness scale (Subtilisin; Subtilisin 0.009, 37° C.): +++
Peptide digestion, intactness scale (Subtilisin; Subtilisin 9, 37° C.): −
Peptide digestion, intactness scale (Pronase; Pronase 0.01, 37° C.): +++
Peptide digestion, intactness scale (Pronase; Pronase 0.1, 37° C.): +++
time for which proteolysis in serum is resisted ([2]; later times not yet tested): at least 48 hours
Peptide digestion, intactness scale (Cathepsin G; Cathepsin G 0.01, 37° C.): +++
Peptide digestion, intactness scale (Cathepsin G; Cathepsin G 0.1, 37° C.): +++
Peptide digestion, intactness scale (Trypsin; Trypsin 0.01, 37° C.): +++
Peptide digestion, intactness scale (Trypsin; Trypsin 10, 37° C.): −
trypsin cleavage sites (Trypsin; [6]): same cleavage sites
time to complete cleavage at R7 (Trypsin; trypsin 0.1 μg): ≤ 5 min
Peptide digestion, intactness scale (Kalikrein; Kalikrein 0.01, 37° C.): +++
Peptide digestion, intactness scale (Kalikrein; Kalikrein 0.1, 37° C.): +++
Peptide digestion, intactness scale (Kalikrein; Kalikrein 1, 37° C.): +++
factor of resistance, TBMB conjugate versus linear (Kalikrein; attack by kallikrein, by comparing different concentrations of enzyme): about 100 fold
cleavage by chymotrypsin (Chymotrypsin; 1 μg chymotrypsin, after 1 hour): completely cleaved
Peptide digestion, intactness scale (Chymotrypsin; Chymotrypsin 0.01, 37° C.): +++
Peptide digestion, intactness scale (Chymotrypsin; Chymotrypsin 0.1, 37° C.): +++
Peptide digestion, intactness scale (Chymotrypsin; Chymotrypsin 1, 37° C.): +++
chymotrypsin cleavage site (Chymotrypsin; [6]): same cleavage sites
metabolised at 1 h, 20 μM [3]: ~50%
Peptide digestion, intactness scale (Proteinase K; Proteinase K 0.01, 37° C.): +++
Peptide digestion, intactness scale (Proteinase K; Proteinase K 0.1, 37° C.): +++
Peptide digestion, intactness scale (Proteinase K; Proteinase K 1, 37° C.): +++

Compound: CG4L1-PK15L1 TBMB: bicyclic CG4L1-PK15L1 (WO 2009/098450) (ALCIFDLGFCSDRFRNCPADE; linker 3-10-17 via TBMB)
factor of resistance, TBMB conjugate versus linear (various proteases): 1-100 fold

Compound: CC(C)C[C@@H]1NC(=O)[C@H](CCC(=O)O)NC(=O)[C@@H](NC(=O)[C@@H](N)CO)CSCc2cc3cc(c2)CSC[C@H](NC(=O)[C@H](CCCCN)NC(=O)[C@@H]2CCCN2C(=O)[C@H](CC(N)=O)NC(=O)[C@H](Cc2c[nH]c4ccccc24)NC1=O)C(=O)N[C@@H](CCCNC(=N)N)C(=O)N[C@@H](CC(C)C)C(=O)N[C@@H](CO)C(=O)N1CCC[C@H]1C(=O)N[C@@H](Cc1ccccc1)C(=O)N[C@@H](CCC(=O)O)C(=O)N[C@H](C(=O)N[C@@H](CCCCN)C(=O)NCC(=O)O)CSC3 [PEP10] (HELM PEPTIDE1{S.C.E.L.W.N.P.K.C.R.L.S.P.F.E.C.K.G}|CHEM1{[c1c(C[*:1])cc(C[*:3])cc1C[*:2]]}$PEPTIDE1,CHEM1,2:R3-1:R1|PEPTIDE1,CHEM1,9:R3-1:R2|PEPTIDE1,CHEM1,16:R3-1:R3$$$V2.0)
pKd (MDM2 (res 2-125); [4]): 6.57
pKd (MDM2 (res 2-125); [5]): 6.12 to 6.60
binding to MDM2 after proteolysis [1]: resistant to proteolysis
